Patent US10054581B1, “Inhibitors of notch signaling pathway and use thereof in treatment of cancers” (Ecole Polytechnique Federale de Lausanne (EPFL), priority 2011, dated 2018)
“Also recorded” adds a separate entry of the source.

Key:
[1] = system: Hes1 in DND41-Parental cells; assay: Hes1 Western blot in DND41-Parental cells; assay type: cell-based, human; conditions: 24 hours
Protocol: Cells were lysed in RIPA buffer (50 mM Tris.Cl, pH 7.5, 150 mM NaCl, 1% nonidet P-40, 0.5% sodium deoxycholate and 0.1% SDS) for 30 minutes at 4° C. Lysed cells were centrifuged to remove the debris at 14000 rpm at 4° C. Supernatant was transferred to a new eppendorf tube. The protein concentration was determined by Bradford assay using spectrophotometer (Ultrospec 3000 pro). 40 μg of protein were denatured in 1×SDS gel loading buffer (100 mM Tris.Cl, pH 6.8, 200 mM DTT, 4% SDS, 0.2% bromophenol, 20% glycerol) by heating at 99° C. for 5 minutes. Denatured protein samples were stored on ice until loading on to the acrylamide gel. The samples were run on 8% or 10% acrylamide gel in Tris-glycine electrophoresis buffer (25 mM Tris, 250 mM glycine, 0.1% SDS). […]
For immunoblotting, membranes were blocked with 5% milk and incubated overnight with primary antibodies at 4° C. […] Signal was detected with Super Signal West chemiluminescent substrate (Thermo Scientific, catalog number 34077).
(§1) 6-(4-Tert-Butylphenoxy)Pyridin-3-Amine (I3) can block NICD mediated activation of the Notch pathway (FIGS. 1A-D). […] In addition, these two cell lines were also monitored over several days for anti-proliferative effects of 6-(4-Tert-Butylphenoxy)Pyridin-3-Amine (I3) and DAPT.

C2C12 myoblasts = assay: C2C12 myoblast differentiation assay; assay type: cell-based; conditions: growth medium (10% serum), 3 days
Protocol: C2C12 cells were grown on collagen-coated cover slip in the presence of growth media (10% serum). To induce myoblast differentiation, cells were grown to 100% confluency for 3 days in the presence of differentiation media (2% horse serum) or in the presence of growth media+Notch inhibitors. After 3 days, cells were washed with 1× ice-cold PBS and fixed with 4% PFA. Immunofluorescence staining was performed using anti-MHC antibody as explained in the section 2.2.6 (Immunofluorescence staining).
To further confirm the Notch inhibitory potential of 6-(4-Tert-Butylphenoxy)Pyridin-3-Amine (I3) in different systems, C2C12 myoblast differentiation was used as a functional assay. The Notch pathway activation in C2C12 myoblasts retains them in an undifferentiated state, while abrogation of Notch signalling induces their differentiation. C2C12 myoblasts were treated with DMSO, 6-(4-Tert-Butylphenoxy)Pyridin-3-Amine (I3) and DAPT and grown to 100% confluency for 3 days. After three days, cells were fixed and stained with antibodies against Myosin Heavy Chain (MHC) protein. Cell nuclei were counterstained with DAPI.

DND41-NICD cells = assay: Alamar blue proliferation assay, DND41-NICD; assay type: cell-based, human; conditions: over 5 days
Protocol: FIGS. 5A-5E show 6-(4-Tert-Butylphenoxy)Pyridin-3-Amine (I3) blocks NICD dependent growth of human cancer cells. […] Western blot analyses were carried out for Hes1 protein using Hes1 specific antibodies. […] Growth kinetics of the parental cell line was followed over 5 days using Alamar blue readout. […] This mutation renders this cell line insensitive to γ-secretase inhibitor treatment. […] The cells were treated with DMSO, γ-secretase inhibitor DAPT and I3 for 6 days. Alamar blue readout was taken at day 0, day 2, day 4 and day 6. Eight replicates were used for each treatment and time point. […] P values were calculated using Student's t.test. *=p value<0.05. ns=not significant.
Alamarblue® proliferation assays were performed to determine the growth kinetics of Notch inhibitor treated cells. […] In metabolically active and proliferating cells, resazurin is converted to resorufin due to an intrinsic reducing power of live cells and produces a red fluorescence. […]
Proliferation assays were performed by seeding 5000 cells/well in a 96 well plate. […] Alamarblue readout was taken using Tecan F500 (Tecan) multiplate reader.
as §1

Structure (SMILES)	Hes1 protein [1]	differentiation into MHC positive myotubes (C2C12 myoblasts)	proliferation (Alamar blue) (DND41-NICD cells)
CC(C)(C)c1ccc(Oc2ccc(N)cn2)cc1 [I3, 6-(4-Tert-Butylphenoxy)Pyridin-3-Amine]	led to a downregulation of Hes1; also recorded: caused a downregulation of Hes1 in DND41-Parental cells	started to differentiate into multinucleated MHC positive myotubes; also recorded: can induce differentiation of C2C12 cells into MHC expressing multinucleated myotubes	induced a proliferation arrest; also recorded: able to block proliferation of NICD overexpressing leukemic cell lines which are resistant to DAPT
C[C@H](NC(=O)Cc1cc(F)cc(F)c1)C(=O)N[C@H](C(=O)OC(C)(C)C)c1ccccc1 [DAPT, N—[N-(3,5-difluorophenacetyl-Lalanyl)]-(S)-phenylglycine t-butyl ester, reference compound]	led to a downregulation of Hes1; also recorded: caused a downregulation of Hes1 in DND41-Parental cells	started to differentiate into multinucleated MHC positive myotubes	did not have a significant impact on their proliferation
